# Data: ChEMBL document CHEMBL1122100, “Pyridoquinoxaline N-oxides. 2. Synthesis and antibacterial activity of tricyclic lactams” (1982)
# How the values were obtained:
# Format in all cases: functional
# [1] = test system: Salmonella enterica; assay: Tested in vitro for the minimum inhibitory concentration (MIC) against Salmonella choleraesuis
# [2] = test system: Salmonella enterica; assay: Tested in vivo for the antibacterial activity against Salmonella choleraesuis after oral administration of 25 mg/kg in mice
# [3] = test system: Salmonella enterica; assay: Tested in vivo for the antibacterial activity against Salmonella choleraesuis after sc administration of 25 mg/kg in mice; conditions: route subcutaneous
# [4] = test system: Pasteurella multocida; assay: Tested in vitro for the minimum inhibitory concentration (MIC) against Pasteurella multocida
# [5] = test system: Escherichia coli; assay: Tested in vitro for the minimum inhibitory concentration (MIC) against Escherichia coli
# [6] = test system: Streptococcus pyogenes; assay: Tested in vitro for the minimum inhibitory concentration (MIC) against Strep. pyogenes
# [7] = test system: Escherichia coli; assay: Tested in vivo for the antibacterial activity against Escherichia coli after sc administration in mice; conditions: read-out: PD50
# [8] = test system: Salmonella enterica; assay: Tested in vivo for the antibacterial activity against Salmonella choleraesuis after oral administration in mice; conditions: read-out: PD50
# [9] = test system: Salmonella enterica; assay: Tested in vivo for the antibacterial activity against Salmonella choleraesuis after sc administration in mice; conditions: read-out: PD50
# [10] = test system: Pasteurella multocida; assay: Tested in vivo for the antibacterial activity against Pasteurella multocida after sc administration in mice; conditions: read-out: PD50
# [11] = test system: Escherichia coli; assay: Tested in vivo for the antibacterial activity against Escherichia coli after oral administration in mice; conditions: read-out: PD50
# [12] = test system: Pasteurella multocida; assay: Tested in vivo for the antibacterial activity against Pasteurella multocida after oral administration in mice; conditions: read-out: PD50
Structure (SMILES),MIC [1] [µg/mL],Protection [2] [%],Protection [3] [%],MIC [4] [µg/mL],MIC [5] [µg/mL],MIC [6] [µg/mL],ED50 [7] [mg/kg],ED50 [8] [mg/kg],ED50 [9] [mg/kg],ED50 [10] [mg/kg],ED50 [11] [mg/kg],ED50 [12] [mg/kg]
COCCN1CCc2c([n+]([O-])c3ccccc3[n+]2[O-])C1=O,3.12,60,90,3.12,1.56,0.78,–,–,–,–,–,–
C=CCN1CCc2c([n+]([O-])c3ccccc3[n+]2[O-])C1=O,1.56,0,30,6.25,3.12,0.78,–,–,–,–,–,–
CN1CCc2c([n+]([O-])c3ccccc3[n+]2[O-])C1=O,1.56,100,100,1.56,0.78,1.56,6.39,5.1,2.96,3.8,8.53,4.7
O=C1c2c([n+]([O-])c3ccccc3[n+]2[O-])CCN1C1CCCCC1,50,0,0,25,50,3.12,–,–,–,–,–,–
O=C1c2c([n+]([O-])c3ccccc3[n+]2[O-])CCN1CCN1CCCCC1,1.56,0,30,25,3.12,< 0.39,–,–,–,–,–,–
O=C1NCCc2c1[n+]([O-])c1ccccc1[n+]2[O-],1.56,0,80,< 0.39,1.56,1.56,–,–,–,–,–,–
CCN1CCc2c([n+]([O-])c3ccccc3[n+]2[O-])C1=O,1.56,50,70,6.25,3.12,1.56,–,–,–,–,–,–
O=C1c2c([n+]([O-])c3ccccc3[n+]2[O-])CCN1CCO,12.5,0,0,12.5,12.5,6.25,–,–,–,–,–,–
COC(=O)N/N=C/c1c[n+]([O-])c2ccccc2[n+]1[O-] [CARBADOX],0.19,100,100,0.78,0.39,0.19,6.44,4.47,5.44,4.05,5.3,6.14
